Experiments:
[1] = tested on: A375 cells; test: cells; settings: Homo sapiens, A-375, read-out: A375 Viability EC50
Experimental: The following day, the medium was replaced with 0.5% FBS in M3 for overnight incubation. […] The cells were incubated with compound or control for 72 hours at 37° C. under 10% CO2. Following incubation, Cell Titer Blue reagent (Promega) was added to each well containing compounds or controls, and then incubated for 3 hours at 37° C. under 10% CO2. Proliferation was measured by fluorescence with excitation at 560 nm and emission at 590 nm using SoftMax Pro.

[2] = target: RAF kinases (Homo sapiens, UniProt P15056, V600E); test: biochemical
[3] = target: RAF kinases (Homo sapiens, UniProt P15056); settings: read-out: BRAF WT Kd; BRAF WT
[4] = target: RAF kinases (Homo sapiens, UniProt P04049); settings: read-out: RAF1 Kd; RAF1
[5] = tested on: MEK1 phosphorylation in the A375 human melanoma cell line; test: cells; settings: A-375, read-out: pMEK IC50

RAF kinases (Homo sapiens, UniProt P15056), sequence (P15056 whole entry): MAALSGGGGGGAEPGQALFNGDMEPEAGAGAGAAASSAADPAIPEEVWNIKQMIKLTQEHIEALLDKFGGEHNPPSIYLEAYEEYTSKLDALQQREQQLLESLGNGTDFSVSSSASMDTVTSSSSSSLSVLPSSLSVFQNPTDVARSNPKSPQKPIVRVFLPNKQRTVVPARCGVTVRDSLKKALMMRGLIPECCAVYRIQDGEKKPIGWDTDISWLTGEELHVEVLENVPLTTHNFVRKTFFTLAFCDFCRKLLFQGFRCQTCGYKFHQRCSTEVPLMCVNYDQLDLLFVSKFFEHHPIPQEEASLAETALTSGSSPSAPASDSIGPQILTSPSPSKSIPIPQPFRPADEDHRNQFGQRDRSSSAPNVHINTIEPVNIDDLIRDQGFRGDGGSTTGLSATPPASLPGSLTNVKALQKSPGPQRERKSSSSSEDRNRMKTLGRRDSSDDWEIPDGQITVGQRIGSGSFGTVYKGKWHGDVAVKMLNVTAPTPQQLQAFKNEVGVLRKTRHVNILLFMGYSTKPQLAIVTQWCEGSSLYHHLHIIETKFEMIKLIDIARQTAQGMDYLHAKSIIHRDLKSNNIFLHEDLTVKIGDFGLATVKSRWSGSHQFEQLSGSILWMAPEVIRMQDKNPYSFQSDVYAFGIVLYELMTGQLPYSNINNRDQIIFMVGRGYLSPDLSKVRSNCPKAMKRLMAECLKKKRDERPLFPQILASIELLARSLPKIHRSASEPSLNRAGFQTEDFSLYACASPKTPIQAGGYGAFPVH
RAF kinases (Homo sapiens, UniProt P15056, V600E), sequence (P15056 whole entry V600E): as the sequence (P15056 whole entry) above, with V600E counted along it
RAF kinases (Homo sapiens, UniProt P04049), sequence (P04049 whole entry): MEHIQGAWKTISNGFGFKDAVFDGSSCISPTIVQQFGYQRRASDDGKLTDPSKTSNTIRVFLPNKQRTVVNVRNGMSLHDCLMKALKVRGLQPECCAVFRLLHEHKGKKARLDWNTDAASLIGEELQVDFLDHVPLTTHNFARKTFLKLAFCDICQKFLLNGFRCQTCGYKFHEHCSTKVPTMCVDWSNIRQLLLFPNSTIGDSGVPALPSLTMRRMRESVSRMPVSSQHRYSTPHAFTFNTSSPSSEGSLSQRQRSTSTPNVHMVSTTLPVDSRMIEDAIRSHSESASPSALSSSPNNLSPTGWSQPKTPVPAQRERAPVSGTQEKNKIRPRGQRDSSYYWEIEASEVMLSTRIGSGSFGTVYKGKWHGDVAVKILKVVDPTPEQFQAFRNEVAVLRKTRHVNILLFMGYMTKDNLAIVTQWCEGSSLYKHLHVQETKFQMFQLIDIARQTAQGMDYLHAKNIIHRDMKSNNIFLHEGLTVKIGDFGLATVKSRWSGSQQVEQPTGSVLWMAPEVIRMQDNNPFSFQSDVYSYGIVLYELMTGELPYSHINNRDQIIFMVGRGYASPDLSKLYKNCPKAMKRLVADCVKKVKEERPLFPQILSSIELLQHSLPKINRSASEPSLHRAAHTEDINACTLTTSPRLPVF

| EC50 [1] [nM] | Kd [2] [nM] | Kd [3] [nM] | Kd [4] [nM] | IC50 [5] [nM] | Compound |
| --- | --- | --- | --- | --- | --- |
| > 1000 | 250 to 500 | > 1000 | > 1000 | > 1000 | COCCOc1cc2ncnc(Oc3cccc(NC(=O)Nc4cc(C5CCOCC5)no4)c3)c2cc1OC [Ex 216, 1-(3-(6-methoxy-7-(2-methoxyethoxy)quinazolin-4-yloxy)phenyl)-3-(3-(tetrahydro-2H-pyran-4-yl)isoxazol-5-yl)urea] |
| > 1000 | 250 to 500 | > 1000 | > 1000 | 500 to 1000 | COCCOc1cc2ncnc(Oc3cccc(NC(=O)Nc4cc(C(F)(F)F)n(-c5ccccc5)n4)c3)c2cc1OC [Ex 225, 1-{3-[6-methoxy-7-(2-methoxyethoxy)quinazolin-4-yloxy]phenyl}-3-[1-phenyl-5-(trifluoromethyl)-1H-pyrazol-3-yl]urea] |
| > 1000 | 500 to 1000 | > 1000 | > 1000 | 250 to 500 | COCCOc1cc2ncnc(Oc3cccc(NC(=O)Nc4cc(C(F)(F)F)nn4-c4ccc(F)cc4)c3)c2cc1OC [Ex 226, 1-[1-(4-fluorophenyl)-3-(trifluoromethyl)-1H-pyrazol-5-yl]-3-{3-[6-methoxy-7-(2-methoxyethoxy)quinazolin-4-yloxy]phenyl}urea] |
| 250 to 500 | 500 to 1000 | > 1000 | > 1000 | 250 to 500 | COCCOc1cc2ncnc(Oc3cccc(NC(=O)Nc4cc(C(F)(F)F)nn4-c4ccc(C)cc4)c3)c2cc1OC [Ex 227, 1-{3-[6-methoxy-7-(2-methoxyethoxy)quinazolin-4-yloxy]phenyl}-3-[1-p-tolyl-3-(trifluoromethyl)-1H-pyrazol-5-yl]urea] |
| > 1000 | 500 to 1000 | > 1000 | > 1000 | < 250 | COCCOc1cc2ncnc(Oc3cccc(NC(=O)Nc4cc(C(C)(CF)CF)nn4-c4ccccc4)c3)c2cc1OC [Ex 228, 1-[3-(1,3-difluoro-2-methylpropan-2-yl)-1-phenyl-1H-pyrazol-5-yl]-3-{3-[6-methoxy-7-(2-methoxyethoxy)quinazolin-4-yloxy]phenyl}urea] |
| – | 500 to 1000 | > 1000 | > 1000 | < 250 | COc1cc2ncnc(Oc3cc(NC(=O)Nc4cc(C(C)(C)C)nn4-c4ccccc4)c(F)cc3F)c2cc1OC [Ex 273, 1-(3-tert-butyl-1-phenyl-1H-pyrazol-5-yl)-3-(5-(6,7-dimethoxyquinazolin-4-yloxy)-2,4-difluorophenyl)urea] |
| – | 250 to 500 | > 1000 | > 1000 | < 250 | COc1cc2ncnc(Oc3cccc(NC(=O)Nc4cc(C(C)(C)C)nn4-c4ccc(C)cc4)c3)c2cc1OC [Ex 274, 1-(3-tert-butyl-1-p-tolyl-1H-pyrazol-5-yl)-3-(3-(6,7-dimethoxyquinazolin-4-yloxy)phenyl)urea] |
| – | 250 to 500 | > 1000 | > 1000 | < 250 | COc1cc2ncnc(Sc3cccc(NC(=O)Nc4cc(C(C)(C)C)nn4-c4ccc(C)cc4)c3)c2cc1OC [Ex 275, 1-(3-tert-butyl-1-p-tolyl-1H-pyrazol-5-yl)-3-(3-(6,7-dimethoxyquinazolin-4-ylthio)phenyl)urea] |
| – | 500 to 1000 | > 1000 | > 1000 | < 250 | COc1cc2ncnc(Oc3cccc(NC(=O)Nc4cc(C(C)(C)C)nn4-c4ccc(C)cc4C)c3)c2cc1OC [Ex 282, 1-(3-tert-butyl-1-(2,4-dimethylphenyl)-1H-pyrazol-5-yl)-3-(3-(6,7-dimethoxyquinazolin-4-yloxy)phenyl)urea] |
| – | 250 to 500 | > 1000 | > 1000 | < 250 | COc1cc2ncnc(Oc3cccc(NC(=O)Nc4cc(C(C)(C)C)nn4-c4cccc(C)c4)c3)c2cc1OC [Ex 285, 1-(3-tert-butyl-1-m-tolyl-1H-pyrazol-5-yl)-3-(3-(6,7-dimethoxyquinazolin-4-yloxy)phenyl)urea] |
| – | 500 to 1000 | > 1000 | > 1000 | < 250 | COCCOc1cc2ncnc(Sc3cccc(NC(=O)Nc4cc(C(C)(C)C)nn4-c4cccc(C)c4)c3)c2cc1OC [Ex 287, 1-(3-tert-butyl-1-m-tolyl-1H-pyrazol-5-yl)-3-(3-(6-methoxy-7-(2-methoxyethoxy)quinazolin-4-ylthio)phenyl)urea] |
| – | 250 to 500 | > 1000 | > 1000 | < 250 | COc1cc2ncnc(Oc3cccc(NC(=O)Nc4cc(C(C)(C)C)nn4-c4ccc(C)cc4)c3C)c2cc1OC [Ex 288, 1-(3-tert-butyl-1-p-tolyl-1H-pyrazol-5-yl)-3-(3-(6,7-dimethoxyquinazolin-4-yloxy)-2-methylphenyl)urea] |
| – | 500 to 1000 | > 1000 | > 1000 | < 250 | COc1ccc(-n2nc(C(C)(C)C)cc2NC(=O)Nc2cccc(Sc3ncnc4cc(OC)c(OC)cc34)c2)cc1 [Ex 362, 1-(3-tert-butyl-1-(4-methoxyphenyl)-1H-pyrazol-5-yl)-3-(3-(6,7-dimethoxyquinazolin-4-ylthio)phenyl)urea] |
| – | 250 to 500 | > 1000 | > 1000 | < 250 | COc1cc2ncnc(Oc3cccc(NC(=O)Nc4cc(C(C)(C)C)nn4-c4ccc(Cl)cc4)c3)c2cc1OC [Ex 365, 1-(3-tert-butyl-1-(4-chlorophenyl)-1H-pyrazol-5-yl)-3-(3-(6,7-dimethoxyquinazolin-4-yloxy)phenyl)urea] |
| – | 500 to 1000 | > 1000 | > 1000 | < 250 | COc1cc2ncnc(Sc3cccc(NC(=O)Nc4cc(C(C)(C)C)nn4-c4ccccc4C(F)(F)F)c3)c2cc1OC [Ex 375, 1-(3-tert-butyl-1-(2-(trifluoromethyl)phenyl)-1H-pyrazol-5-yl)-3-(3-(6,7-dimethoxyquinazolin-4-ylthio)phenyl)urea] |
| – | 500 to 1000 | > 1000 | > 1000 | < 250 | COc1cc2ncnc(Oc3cccc(NC(=O)Nc4cc(C(C)(C)C)nn4-c4ccccc4C(F)(F)F)c3)c2cc1OC [Ex 376, 1-(3-tert-butyl-1-(2-(trifluoromethyl)phenyl)-1H-pyrazol-5-yl)-3-(3-(6,7-dimethoxyquinazolin-4-yloxy)phenyl)urea] |
| – | 250 to 500 | > 1000 | > 1000 | < 250 | COc1cc2ncnc(Sc3cccc(NC(=O)Nc4cc(C(C)(C)C)nn4-c4cccc(C(F)(F)F)c4)c3)c2cc1OC [Ex 380, 1-(3-tert-butyl-1-(3-(trifluoromethyl)phenyl)-1H-pyrazol-5-yl)-3-(3-(6,7-dimethoxyquinazolin-4-ylthio)phenyl) urea] |
| – | 250 to 500 | > 1000 | > 1000 | < 250 | COc1cc2ncnc(Sc3cccc(NC(=O)Nc4cc(C5(C(F)(F)F)CC5)nn4-c4ccccc4)c3)c2cc1OC [Ex 383, 1-(3-(6,7-dimethoxyquinazolin-4-ylthio)phenyl)-3-(1-phenyl-3-(1-(trifluoromethyl)cyclopropyl)-1H-pyrazol-5-yl)urea] |

| Compound | EC50 [1] [nM] | Kd [2] [nM] | Kd [3] [nM] | Kd [4] [nM] | IC50 [5] [nM] |
| --- | --- | --- | --- | --- | --- |
| COc1cc2ncnc(Sc3cccc(NC(=O)Nc4cc(C(C)(C)C)nn4-c4cccc(C)c4)c3)c2cc1OC [Ex 286, 1-(3-tert-butyl-1-m-tolyl-1H-pyrazol-5-yl)-3-(3-(6,7-dimethoxyquinazolin-4-ylthio)phenyl)urea] | – | 250 to 500 | > 1000 | > 1000 | < 250 |
| COc1cc2ncnc(Sc3cccc(NC(=O)Nc4cc(C(C)(C)C)nn4-c4cccc(F)c4)c3)c2cc1OC [Ex 360, 1-(3-tert-butyl-1-(3-fluorophenyl)-1H-pyrazol-5-yl)-3-(3-(6,7-dimethoxyquinazolin-4-ylthio)phenyl)urea] | – | 250 to 500 | > 1000 | > 1000 | < 250 |
| COc1cc2ncnc(Sc3cccc(NC(=O)Nc4cc(C(C)(C)C)nn4-c4ccc(Cl)cc4)c3)c2cc1OC [Ex 366, 1-(3-tert-butyl-1-(4-chlorophenyl)-1H-pyrazol-5-yl)-3-(3-(6,7-dimethoxyquinazolin-4-ylthio)phenyl)urea] | – | 250 to 500 | > 1000 | > 1000 | < 250 |
| COc1cc2ncnc(Oc3ccc(F)c(NC(=O)Nc4cc(C(C)(C)C)nn4-c4ccccc4)c3)c2cc1OC [Ex 368, 1-(3-tert-butyl-1-phenyl-1H-pyrazol-5-yl)-3-(5-(6,7-dimethoxyquinazolin-4-yloxy)-2-fluorophenyl)urea] | – | 500 to 1000 | > 1000 | > 1000 | < 250 |
| COc1cc2ncnc(Sc3cccc(NC(=O)Nc4cc(C(C)(C)C)nn4-c4ccccc4F)c3)c2cc1OC [Ex 371, 1-(3-tert-butyl-1-(2-fluorophenyl)-1H-pyrazol-5-yl)-3-(3-(6,7-dimethoxyquinazolin-4-ylthio)phenyl)urea] | – | 250 to 500 | > 1000 | > 1000 | < 250 |
| COc1cc2ncnc(Oc3cccc(NC(=O)Nc4cc(C(C)(C)C)nn4-c4ccc(C(F)(F)F)cc4)c3)c2cc1OC [Ex 373, 1-(3-tert-butyl-1-(4-(trifluoromethyl)phenyl)-1H-pyrazol-5-yl)-3-(3-(6,7-dimethoxyquinazolin-4-yloxy)phenyl)urea] | – | 500 to 1000 | > 1000 | > 1000 | < 250 |
| COc1cc2ncnc(Oc3cccc(NC(=O)Nc4cc(C(C)(C)C)nn4-c4cccc(C(F)(F)F)c4)c3)c2cc1OC [Ex 379, 1-(3-tert-butyl-1-(3-(trifluoromethyl)phenyl)-1H-pyrazol-5-yl)-3-(3-(6,7-dimethoxyquinazolin-4-yloxy)phenyl)urea] | – | 250 to 500 | > 1000 | > 1000 | < 250 |
